Results from US10450549B2, “Aryloxyphenoxypropionate tolerance in turfrgass species and use of AAD1 as a selectable marker” (Dow AgroSciences, LLC, priority 2004, dated 2019).

How the values were obtained:
AAD1 (v1) = target: T1, AAD1 (v1) (Sphingobium herbicidovorans, UniProt Q8KSC8); test: Colorimetric phenol detection assay of AAD1 (v1) activity (purified enzyme or E. coli extract); type: biochemical; conditions: Table 3, substrate 1 mM, 15 min; for A510, AAD1: 1 μg purified AAD1 (v1) per 0.16 ml assay; for A510, AAD1 (10x): 10 μg purified AAD1 (v1) per 0.16 ml assay
T1 construct: made in house; host or cells: E. coli BL-21 Star (DE3), plasmid pDAB3203

AAD1 (v3) event lines = test: Field tolerance of pDAB3404 T1 corn to quizalofop and 2,4-D: AAD1 (v3) events; type: in vivo; conditions: 1120 g ae/ha
From the text: (§1) Two field trials were established at field stations in Hawaii and Indiana. […] The hybrid Hi-II×5XH571 is of the same parentage as the AAD1 (v3) event lines. The hybrid Croplan 585SR is a sethoxydim resistant line.
(§2) The experimental design was a split-plot with four replications. The main plot was herbicide treatment and the sub-plot was AAD1 (v3) event or comparison hybrid. Plots were one row by 3.7 meters with approximately twenty-five seeds planted in each row. For AAD1 events, seeds from a different lineage within the event were planted in each replicate.
(§3) Glufosinate at 560 g ai/ha was applied to AAD1 (v3) plots at the V2 stage to eliminate non-transformed plants. […] Treatments were applied using backpack broadcast boom equipment delivering 187 L/ha carrier volume at 130-200 kpa pressure.
(§4) Quizalofop treated plots were visually assessed for crop injury at one and three weeks after application (WAA) using a 0-100% scale, where 0 equals no injury and 100 equals complete death.

Non-transformed hybrids = test: Field tolerance to quizalofop and 2,4-D: non-transformed hybrids; type: in vivo, corn; conditions: 1120 g ae/ha
From the text: as §1, §2, §3, §4

T1 sequence (Q8KSC8 whole entry): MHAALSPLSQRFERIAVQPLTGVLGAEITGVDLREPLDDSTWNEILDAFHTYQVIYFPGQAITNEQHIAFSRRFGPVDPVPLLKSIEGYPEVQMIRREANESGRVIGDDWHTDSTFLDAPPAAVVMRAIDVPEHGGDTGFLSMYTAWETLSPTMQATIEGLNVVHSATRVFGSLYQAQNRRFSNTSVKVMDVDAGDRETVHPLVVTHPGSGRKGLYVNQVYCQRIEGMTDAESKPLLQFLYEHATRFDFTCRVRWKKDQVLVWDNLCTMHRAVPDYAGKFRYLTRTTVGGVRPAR

O=S(=O)([O-])OCCOc1ccc(Cl)cc1Cl.[Na+] [sesone]
A510, AAD1 (AAD1 (v1)): 0.02
A510, AAD1 (10x) (AAD1 (v1)): 0.177

CC(Oc1ccc(F)cc1Cl)C(=O)O (racemic) [(R,S)-2-chloro, 4-fluorophenoxy-proprionate]
A510, AAD1 (AAD1 (v1)): 0.304
A510, AAD1 (10x) (AAD1 (v1)): 2.358

CNC.O=C(O)COc1ccc(Cl)cc1Cl [2,4-D amine]
%Leaning 2 DAA (0-100 scale) (AAD1 (v3) event lines; HI, 3404.001): 5%
Braceroot Deformation 3-4 WAA (0-10 scale) (AAD1 (v3) event lines; HI, 3404.001): 2
%Leaning 2 DAA (0-100 scale) (AAD1 (v3) event lines; HI, 3404.006): 0%
Braceroot Deformation 3-4 WAA (0-10 scale) (AAD1 (v3) event lines; HI, 3404.006): 0
%Leaning 2 DAA (0-100 scale) (AAD1 (v3) event lines; HI, 3404.013): 0%
Braceroot Deformation 3-4 WAA (0-10 scale) (AAD1 (v3) event lines; HI, 3404.013): 0
%Leaning 2 DAA (0-100 scale) (AAD1 (v3) event lines; HI, 3404.017): 0%
Braceroot Deformation 3-4 WAA (0-10 scale) (AAD1 (v3) event lines; HI, 3404.017): 0
%Leaning 2 DAA (0-100 scale) (AAD1 (v3) event lines; HI, 3404.020): 0%
Braceroot Deformation 3-4 WAA (0-10 scale) (AAD1 (v3) event lines; HI, 3404.020): 0
%Leaning 2 DAA (0-100 scale) (AAD1 (v3) event lines; HI, 3404.022): 0%
Braceroot Deformation 3-4 WAA (0-10 scale) (AAD1 (v3) event lines; HI, 3404.022): 0
%Leaning 2 DAA (0-100 scale) (AAD1 (v3) event lines; HI, 3404.025): 0%
Braceroot Deformation 3-4 WAA (0-10 scale) (AAD1 (v3) event lines; HI, 3404.025): 0
%Leaning 2 DAA (0-100 scale) (AAD1 (v3) event lines; HI, 3404.027): 0%
Braceroot Deformation 3-4 WAA (0-10 scale) (AAD1 (v3) event lines; HI, 3404.027): 0
%Leaning 2 DAA (0-100 scale) (AAD1 (v3) event lines; HI, 3404.031): 0%
Braceroot Deformation 3-4 WAA (0-10 scale) (AAD1 (v3) event lines; HI, 3404.031): 0
%Leaning 2 DAA (0-100 scale) (AAD1 (v3) event lines; HI, 3404.033): 0%
Braceroot Deformation 3-4 WAA (0-10 scale) (AAD1 (v3) event lines; HI, 3404.033): 0
%Leaning 2 DAA (0-100 scale) (AAD1 (v3) event lines; HI, 3404.036): 0%
Braceroot Deformation 3-4 WAA (0-10 scale) (AAD1 (v3) event lines; HI, 3404.036): 0
%Leaning 2 DAA (0-100 scale) (AAD1 (v3) event lines; HI, 3404.044): 0%
Braceroot Deformation 3-4 WAA (0-10 scale) (AAD1 (v3) event lines; HI, 3404.044): 1
%Leaning 2 DAA (0-100 scale) (AAD1 (v3) event lines; HI, 3404.050): 1%
Braceroot Deformation 3-4 WAA (0-10 scale) (AAD1 (v3) event lines; HI, 3404.050): 1
%Leaning 2 DAA (0-100 scale) (AAD1 (v3) event lines; HI, 3404.053): 0%
Braceroot Deformation 3-4 WAA (0-10 scale) (AAD1 (v3) event lines; HI, 3404.053): 0
%Leaning 2 DAA (0-100 scale) (AAD1 (v3) event lines; HI, 3404.074): 0%
Braceroot Deformation 3-4 WAA (0-10 scale) (AAD1 (v3) event lines; HI, 3404.074): 0
%Leaning 2 DAA (0-100 scale) (AAD1 (v3) event lines; HI, 3404.082): 0%
Braceroot Deformation 3-4 WAA (0-10 scale) (AAD1 (v3) event lines; HI, 3404.082): 1
%Leaning 2 DAA (0-100 scale) (AAD1 (v3) event lines; IN, 3404.001): 0%
Braceroot Deformation 3-4 WAA (0-10 scale) (AAD1 (v3) event lines; IN, 3404.001): 1
%Leaning 2 DAA (0-100 scale) (AAD1 (v3) event lines; IN, 3404.006): 0%
Braceroot Deformation 3-4 WAA (0-10 scale) (AAD1 (v3) event lines; IN, 3404.006): 0
%Leaning 2 DAA (0-100 scale) (AAD1 (v3) event lines; IN, 3404.013): 0%
Braceroot Deformation 3-4 WAA (0-10 scale) (AAD1 (v3) event lines; IN, 3404.013): 0
%Leaning 2 DAA (0-100 scale) (AAD1 (v3) event lines; IN, 3404.017): 1%
Braceroot Deformation 3-4 WAA (0-10 scale) (AAD1 (v3) event lines; IN, 3404.017): 0
%Leaning 2 DAA (0-100 scale) (AAD1 (v3) event lines; IN, 3404.020): 0%
Braceroot Deformation 3-4 WAA (0-10 scale) (AAD1 (v3) event lines; IN, 3404.020): 0
%Leaning 2 DAA (0-100 scale) (AAD1 (v3) event lines; IN, 3404.022): 1%
Braceroot Deformation 3-4 WAA (0-10 scale) (AAD1 (v3) event lines; IN, 3404.022): 0
%Leaning 2 DAA (0-100 scale) (AAD1 (v3) event lines; IN, 3404.025): 0%
Braceroot Deformation 3-4 WAA (0-10 scale) (AAD1 (v3) event lines; IN, 3404.025): 0
%Leaning 2 DAA (0-100 scale) (AAD1 (v3) event lines; IN, 3404.027): 3%
Braceroot Deformation 3-4 WAA (0-10 scale) (AAD1 (v3) event lines; IN, 3404.027): 0
%Leaning 2 DAA (0-100 scale) (AAD1 (v3) event lines; IN, 3404.031): 1%
Braceroot Deformation 3-4 WAA (0-10 scale) (AAD1 (v3) event lines; IN, 3404.031): 0
%Leaning 2 DAA (0-100 scale) (AAD1 (v3) event lines; IN, 3404.033): 0%
Braceroot Deformation 3-4 WAA (0-10 scale) (AAD1 (v3) event lines; IN, 3404.033): 0
%Leaning 2 DAA (0-100 scale) (AAD1 (v3) event lines; IN, 3404.036): 0%
Braceroot Deformation 3-4 WAA (0-10 scale) (AAD1 (v3) event lines; IN, 3404.036): 0
%Leaning 2 DAA (0-100 scale) (AAD1 (v3) event lines; IN, 3404.044): 1%
Braceroot Deformation 3-4 WAA (0-10 scale) (AAD1 (v3) event lines; IN, 3404.044): 0
%Leaning 2 DAA (0-100 scale) (AAD1 (v3) event lines; IN, 3404.050): 0%
Braceroot Deformation 3-4 WAA (0-10 scale) (AAD1 (v3) event lines; IN, 3404.050): 0
%Leaning 2 DAA (0-100 scale) (AAD1 (v3) event lines; IN, 3404.053): 1%
Braceroot Deformation 3-4 WAA (0-10 scale) (AAD1 (v3) event lines; IN, 3404.053): 0
%Leaning 2 DAA (0-100 scale) (AAD1 (v3) event lines; IN, 3404.074): 0%
Braceroot Deformation 3-4 WAA (0-10 scale) (AAD1 (v3) event lines; IN, 3404.074): 0
%Leaning 2 DAA (0-100 scale) (AAD1 (v3) event lines; IN, 3404.082): 0%
Braceroot Deformation 3-4 WAA (0-10 scale) (AAD1 (v3) event lines; IN, 3404.082): 0
%Leaning 2 DAA (0-100 scale) (Non-transformed hybrids; HI, CROPLAN 585SR): 33%
Braceroot Deformation 3-4 WAA (0-10 scale) (Non-transformed hybrids; HI, CROPLAN 585SR): 9
%Leaning 2 DAA (0-100 scale) (Non-transformed hybrids; HI, DK493): 23%
Braceroot Deformation 3-4 WAA (0-10 scale) (Non-transformed hybrids; HI, DK493): 9
%Leaning 2 DAA (0-100 scale) (Non-transformed hybrids; HI, HI-II X 5XH571): 34%
Braceroot Deformation 3-4 WAA (0-10 scale) (Non-transformed hybrids; HI, HI-II X 5XH571): 9
%Leaning 2 DAA (0-100 scale) (Non-transformed hybrids; IN, CROPLAN 585SR): 11%
Braceroot Deformation 3-4 WAA (0-10 scale) (Non-transformed hybrids; IN, CROPLAN 585SR): 9
%Leaning 2 DAA (0-100 scale) (Non-transformed hybrids; IN, DK493): 20%
Braceroot Deformation 3-4 WAA (0-10 scale) (Non-transformed hybrids; IN, DK493): 8
%Leaning 2 DAA (0-100 scale) (Non-transformed hybrids; IN, HI-II X 5XH571): 13%
Braceroot Deformation 3-4 WAA (0-10 scale) (Non-transformed hybrids; IN, HI-II X 5XH571): 7

O=C(O)COc1ccc(F)cc1Cl [compound 124988]
A510, AAD1 (AAD1 (v1)): 0.007
A510, AAD1 (10x) (AAD1 (v1)): 0.058
